Consider four compounds from patent US7582638B2, “Pyrazole-isoquinoline urea derivatives as p38 kinase inhibitors” (Eli Lilly and Company, priority 2005, dated 2009).

Counter-ions that a name gives are not always drawn.

The assay deals with pMAPKAPK2. In words: Inhibition of p-MAPKAPK2 in vitro (anisomycin-stimulated RAW 264.7 cells, ELISA). It is filed as cell-based, murine. To be noted: Mus musculus, RAW264.7, p-MAPKAPK2 in vitro, read-out: IC50. The protocol: RAW 264.7 cells (a murine monocytic/macrophage line ATCC) are seeded at a density of 50,000 cells/well in 96-well plates with RPMI-1640 medium plus 10% fetal bovine serum (FBS) and allowed to settle and adhere to the bottom of the well for 48 hours. After reaching confluence, cells are treated for 2 hours with 10 serial dilutions of different compounds. A control compound is always included. After 2 hours, anisomicin (100 ug/ml) is added and cells are incubated for 30 minutes at 37° C. under a 5% CO2 atmosphere. Then, cells are fixed and treated with hydrogen peroxide in order to remove endogenous peroxidase. Finally, plates are blocked with FBS, washed, and an ELISA assay is carried out by using an antiphospho-MAPKAPK2 (Thr 334, Cell Signalling, Cat # 3041) antibody and ahP-Conjugated Secondary Antibody. This reaction is detected by using FEMTO (Pierce) which is an enhanced chemiluminiscent substrate ahP that results in rapid kinetic light output and high signal intensity. The compound exemplified in Example 12 is tested essentially as described above and is found to inhibit the pMAPKAPK2 enzyme production with an IC50 of 7 nM.
For the compound `COC1(c2cc(NC(=O)Nc3cnc(OC4CCN(C(=O)C5(C)CC5)CC4)c4ccccc34)n(-c3ccc(C)cc3)n2)CC1` [Example 9, 1-[5-(1-Methoxy-cyclopropyl)-2-p-tolyl-2H-pyrazol-3-yl]-3-{1-[1-(1-methyl-cyclopropanecarbonyl)-piperidin-4-yloxy]-isoquinolin-4-yl}-urea mesylate], the IC50 came out at 101 nM. Then `Cc1ccc(-n2nc(C3(C)CC3)cc2NC(=O)Nc2cnc(N3CCN(C(=O)c4c(F)cccc4F)CC3)c3ccccc23)cc1` [Example 3, 1-{1-[4-(2,6-Difluoro-benzoyl)-piperazin-1-yl]-isoquinolin-4-yl}-3-[5-(1-methyl-cyclopropyl)-2-p-tolyl-2H-pyrazol-3-yl]-urea], with 25 nM; and `Cc1ccc(-n2nc(C3(C)CC3)cc2NC(=O)Nc2cnc(N3CCN(C(=O)C4CC4)CC3)c3ccccc23)cc1` [Example 1, 1-[1-(4-Cyclopropanecarbonyl-piperazin-1-yl)-isoquinolin-4-yl]-3-[5-(1-methyl-cyclopropyl)-2-p-tolyl-2H-pyrazol-3-yl]-urea], with 44 nM; and `Cc1ccc(-n2nc(C(C)(C)C)cc2NC(=O)Nc2cnc(OC3CCN(C(N)=O)CC3)c3ccccc23)cc1` [Example 23], with 125 nM.
